Reference: patent US11634686B2, “Method of producing naive pluripotent stem cells” (priority 2016, dated 2023)

Legend:
primed hPSCs = test: Conversion of hPSCs from primed to naive pluripotency (Nanog+ cells among hNA+ human cells, dome-shaped colonies); format: cell-based; details: for effect of removal of the component from 2iLI medium on Nanog+ cells and mESC-like colonies: primed H9 after Torin1 3 hr, 5 days culture on MEF
Experimental: Primed hPSCs were treated with 10 μM ROCK inhibitor Y27632 (Abcam) overnight in hESC medium. After being washed twice in phosphate-buffered saline (PBS), primed hPSCs were cultured in 2iLI medium with 10 μM Torin1 (Tocris) for 3 hours. 2iLI medium contained 50% glucose-free DMEM/F12 (Life Technologies) and 50% glucose-free Neurobasal (Life Technologies), 5 mM glucose, 1 mM glutamine, 1% NEAA, 0.1 mM […], 100 U/ml penicillin, 100 μg/ml streptomycin, 5 mg/mL bovine serum albumin (Sigma) to maintain osmolarity, 20 ng/mL recombinant human LIF (Millipore), […] human insulin (Sigma), 1 μM PD0325901 (PD, EMD Millipore), and 3 μM CHIR99021 (CH, Stemgent). For N004 iPSCs, 2iLI medium with 0.8 μM CHIR99021 was used instead. Then hPSCs were trypsinized into single cells using TrypLE (Life Technologies) for 5 min at 37° C. The single cells were plated on MEF feeders (5-6×10^4/cm^2) in 2iLI medium (without Torin1), which was changed daily. Small, bright, dome-shaped colonies appeared in 4-5 days and were picked manually at day 5-7 for dissociation by TrypLE into single cells, which were plated on fresh MEF cells. After several manual passages, mouse ESC-like colonies were uniformly seen and passaged every 3 days with TrypLE and maintained in 2iLI media (without Torin1). Immunostaining was performed using standard protocol to detect various antigens in cultured cells or frozen tissue sections. Briefly, cells or tissue sections were fixed in 4% paraformaldehyde (Sigma) for 20 min, treated with 0.1% Triton X-100 for 15 min at room temperature for permeabilization, blocked in 3% BSA for 1 hour at room temperature, and then incubated with the indicated primary antibodies (Table S1) overnight at 4° C. and secondary antibodies for 1 h at 37° C. Secondary antibodies were AlexaFluor 488, 594, and 647 (1:1,000, Thermo fisher Scientific). Alkaline phosphatase (AP) staining was performed using the Alkaline Phosphatase Kit (Millipore). Diaminobenzidine (DAB) staining was also used to detect GFP expression in frozen embryo sections according to manufacturer's protocol (Vector Laboratories). Briefly, the frozen sections on slides were thawed at room temperature for 5 min. Then the slides were treated with 0.3% H2O2 solution in PBS at room temperature for 10 min to block endogenous peroxidase activity, and then treated with 3% BSA for 45 min for blocking. The sections were incubated with primary antibody (anti-GFP) in 0.1% BSA for 30 min at room temperature, rinsed briefly in PBS 3 times (5 min each), and then incubated with biotinylated secondary antibody for 30 min followed by PBS rinsing for 3 times (5 min each). The sections were incubated with VECTASTAIN ABC reagent (Vector Laboratories) for 30 min, washed with PBS for 5 min. The sections were incubated with 100 μl peroxidase substrate solution (Sigma, D4293) on the slide under microscope until desired staining intensity and then washed with PBS to remove the substrate solution. For live imaging of mitochondria, primed or naive hPSCs were incubated in prewarmed hESC medium (for primed hPSCs) or 2iLI medium (for naive hPSCs) containing 50 nM MitoTracker Green FM or 100 nM TMRE (Life Technologies) for 15 min at 37° C. Then the staining medium was replaced with the corresponding prewarmed medium without dyes. Cells were then imaged on a Leica DMI6000B fluorescence microscope. Quantification of LC3II puncta was performed using NIH ImageJ with the AUTOCOUNTER pluggin, which calculates the percentage of cell area covered by LC3II puncta.

TFE3 = test: Torin1/rapamycin-induced nuclear translocation of TFE3 (immunostaining); format: cell-based, human; details: primed H9 hESCs; inhibition of mTor
Experimental: We named this medium 2iLI.
(§1) Immunostaining was performed using standard protocol to detect various antigens in cultured cells or frozen tissue sections. Briefly, cells or tissue sections were fixed in 4% paraformaldehyde (Sigma) for 20 min, treated with 0.1% Triton X-100 for 15 min at room temperature for permeabilization, blocked in 3% BSA for 1 hour at room temperature, and then incubated with the indicated primary antibodies (Table S1) overnight at 4° C. and secondary antibodies for 1 h at 37° C. Secondary antibodies were AlexaFluor 488, 594, and 647 (1:1,000, Thermo fisher Scientific). Alkaline phosphatase (AP) staining was performed using the Alkaline Phosphatase Kit (Millipore). Diaminobenzidine (DAB) staining was also used to detect GFP expression in frozen embryo sections according to manufacturer's protocol (Vector Laboratories). Briefly, the frozen sections on slides were thawed at room temperature for 5 min. Then the slides were treated with 0.3% H2O2 solution in PBS at room temperature for 10 min to block endogenous peroxidase activity, and then treated with 3% BSA for 45 min for blocking. […] Cells were then imaged on a Leica DMI6000B fluorescence microscope. Quantification of LC3II puncta was performed using NIH ImageJ with the AUTOCOUNTER pluggin, which calculates the percentage of cell area covered by LC3II puncta.

primed H9 hESCs = test: Autophagy by costaining for LC3 and Lamp1 (LC3II puncta); format: cell-based, human
Experimental: as §1

## human LIF: recombinant human Leukemia Inhibitory Factor, component of 2iLI medium
Primed hPSCs
  effect of removal of the component from 2iLI medium on Nanog+ cells and mESC-like colonies: drastically reduced Nanog^+ cells and mESC-like colonies

## CNC(=O)c1ccccc1Oc1nc(Nc2cc(OC)c(OC)c(OC)c2)ncc1Br [SBI-0206965]
Primed hPSCs; primed H9 treated 3 hr, with 2iLI and Torin1, Nanog+ of hNA+ cells after five days
  effect on primed-to-naive conversion of blocking autophagy: not significantly affected

## Cc1c[nH]c(-c2cnc(NCCNc3ccc(C#N)cn3)nc2-c2ccc(Cl)cc2Cl)n1 [CHIR99021]
Primed hPSCs; N004 iPSCs, all other conditions as in 2iLI medium, percentage of human cells positive for Nanog
  optimized concentration for conversion of N004 iPSCs to naive state: 0.8 µM
Primed hPSCs
  effect of removal of the component from 2iLI medium on Nanog+ cells and mESC-like colonies: drastically reduced Nanog^+ cells and mESC-like colonies

## human insulin: human insulin, component of 2iLI medium
Primed hPSCs; primed H9, Torin1 10 μM 3 hr, human insulin 18 μg/ml, about 5 days on MEF feeders
  percentage of Nanog+ cells among all human cells (hNA+) on replacing N2 and B27 supplements: much higher percentage of Nanog^+ cells
Primed hPSCs
  effect of removal of the component from 2iLI medium on Nanog+ cells and mESC-like colonies: drastically reduced Nanog^+ cells and mESC-like colonies

## CCC(=O)N1CCN(c2ccc(-n3c(=O)ccc4cnc5ccc(-c6cnc7ccccc7c6)cc5c43)cc2C(F)(F)F)CC1 [Torin1]
TFE3
  translocation of TFE3 from cytoplasm to nucleus: induced rapid translocation of TFE3 from cytoplasm to nucleus
Primed hPSCs; transient treatment (10 μM for 3 hr) in 2iLI medium, 5 mM glucose, 5% O2
  conversion of hPSCs from primed to naive pluripotency: converted hPSCs from primed to naive pluripotency
Primed H9 hESCs; 2iLI medium with 5 mM glucose and 10 μM Torin1 for 3 hr
  induction of autophagy, combined treatment: induced autophagy most prominently
Primed H9 hESCs; primed H9 in hESC medium, mTor inhibition for 3 hr
  induction of autophagy: induced autophagy

## O=C(NOC[C@H](O)CO)c1ccc(F)c(F)c1Nc1ccc(I)cc1F [PD, PD0325901]
Primed hPSCs
  effect of removal of the component from 2iLI medium on Nanog+ cells and mESC-like colonies: drastically reduced Nanog^+ cells and mESC-like colonies
